Reference: patent publication US9791449B2, “Ovarian cancer stem cells and methods of isolation and uses thereof” (THE GENERAL HOSPITAL CORPORATION, priority 2011, dated 2017)
Entries after “also recorded” stand apart in the source; their conditions may differ.

Tests used:
OVCAR-5 cells [1] = test: Cell proliferation assay in monolayer (trypan blue count plus flow cytometry); format: cell-based, human; settings: for proliferation of 3+/Ecad+ population / proliferation of 3+/Ecad− population: OVCAR-5, doxorubicin 60 nM, 1, 2 and 3 days
Method: OVCAR-5 cells were seeded in T-75 flasks at different densities (1.6×10^6, 1.2×10^6, 0.8×10^6 cells) with DMEM in 10% FCS, incubated for 24 h, and then treated with either PBS (control) or 60 nM doxorubicin for 24, 48, and 72 h. Cells seeded at 0.8×10^6 were also treated with cisplatin (0.2, 0.5, 1 μM) for 72 h. Harvested total viable cells were counted by trypan blue staining in a hemocytometer and stained with antihuman CD24-PE, anti-mouse/human CD44-APC/Cy7, anti-human Epcam-APC, and anti-human Ecadherin-FITC. Flow cytometry was performed to analyze for the absolute number of 3+/Ecad− and 3+/Ecad+ cells, which were calculated from the total viable cell numbers by analyzing the percentage of each population adjusted for seeding density (1×, 1.5×, and 2×, respectively).

[2] = test system: ovarian cancer cells marked by CD44, CD24, and Epcam (3+); settings: after treatment with chemotherapeutics; cited from earlier work
OVCAR-5 cells [3] = test: Cell cycle analysis by flow cytometry; format: cell-based, human
Method: OVCAR-5 was grown to 50-60% confluency in DMEM with 10% FCS, untreated or treated with 100 μg/mL (714 nM) MIS or 60 nM doxorubicin for 48 h, harvested, and incubated with 10 μg/mL Hoechst 33342 at 37° C. for 30 min or 40 μg/mL propidium iodide (Sigma) at 25° C. for 30 min. Cells were stained with anti-human CD24-PE, anti-mouse/human CD44-APC/Cy7, anti-human Epcam-APC, and anti-human Ecadherin-FITC for 20 min at 4° C. and fixed in paraformaldehyde (1%), and the cell cycle was analyzed using the SORP LSRII.

[4] = test system: MOVCAR-7 and MOVCAR-8 cell lines; test: qPCR of CDK inhibitor mRNAs relative to GAPDH; format: cell-based, mouse
Method: Total microRNA (miRNAs) were extracted from the different cell lines HOSE-4, HOSE-6, OVCAR-5, OVCAR-3, OVCAR-8, IGROV-1, and SKOV-3 using the miRNeasy Mini kit (QIAGEN) and reverse-transcribed to cDNAs using the TaqMan MicroRNA Reverse Transcription Kit (Applied Biosystems). Levels of Let-7c miRNAs were measured by quantitative PCR using TagMan Let-7 probes (Applied Biosystems; part no. 4373167) with U47 RNA as internal standard for normalization. Total mRNAs were also extracted from separated and unseparated OVCAR-5, MOVCAR-7, and MOVCAR-8 cell lines using an RNeasy Mini kit (QIAGEN) and reverse-transcribed to cDNAs using the SuperScript III Reverse Transcription Kit (Invitrogen). Levels of Lin28 and cyclin-dependent kinase (CDK) inhibitor mRNAs were measured by quantitative PCR with GAPDH as an internal standard using the following primers: […]
LIN28 F ([…])(SEQ ID NO: 34) and R ([…])(SEQ ID NO: 35); p15 F ([…])(SEQ ID NO: 36) and R ([…])(SEQ ID NO: 37); p16 F ([…])(SEQ ID NO: 38) and R ([…])(SEQ ID NO: 39); p18 F ([…])(SEQ ID NO: 40) and R ([…])(SEQ ID NO: 41); p19F ([…])(SEQ ID NO: 42) and R ([…])(SEQ ID NO: 43); p21 F ([…])(SEQ ID NO: 44) and R ([…])(SEQ ID NO: 45); p27 F ([…])(SEQ ID NO: 46) and R ([…])(SEQ ID NO: 47); CDK2 F ([…])(SEQ ID NO: 48) and R ([…])(SEQ ID NO: 49); CDK4 F ([…])(SEQ ID NO: 50) and R([…])(SEQ ID NO: 51); CDK6 F ([…])(SEQ ID NO: 52) and R ([…])(SEQ ID NO: 53); and GAPDH F ([…])(SEQ ID NO: 54) and R ([…])(SEQ ID NO: 55). Relative fold changes of Let-7c miRNAs and Lin28 and CDK inhibitor mRNAs were calculated as ΔCt or ΔΔCt (1) (n=3 for each primer).

3+/Ecad− OVCAR-5 cells = test: Colony formation assay of FACS-separated cells; format: cell-based, human; settings: OVCAR-5 3+/Ecad− cells, 2000 cells in six-well plates, MIS 30 ug/ml or Doxorubicin 30 nM vs media, 14 days
Method: Colony formation was performed as previously described (4; wei 2010). 3+/Ecad− or 3−/Ecad+ cells separated from the ovarian cancer cell lines were treated with MIS or doxorubicin, cisplatin, or taxol, then plated on 6-well plates containing 2 ml/well complete DMEM medium at 500, 1000, or 2000 cells/well, and incubated for 14 days at 37° C., with a media change at day 7. Cells separated from primary ascites were plated on 12-well plates coated by metrigel or by agarose for colony formation assays at 25,000, 50,000, or 100,000 cells/well. Cells were seeded on 1:2 metrigel or in 0.4% agarose over a 0.8% layer, and incubated for 3-4 weeks at 37° C. At day 14 (cell lines) or day 21 (ascites), plates were washed with 1×PBS, and cells fixed with methanol. Resulting colonies were stained with Giemsa and the stained area captured and analyzed using Image J (Rasband, NIH, USA, http://rsb.info.nih.gov/ij/). Large colonies greater than 4 mm at 10× magnification were also counted and compared.

[5] = OVCAR-5, cisplatin 0.2, 0.5 and 1 μM, 3 d, absolute cell number
[6] = absolute cell number, listed as Doxorubicin

SMILES | proliferation of total viable cells (OVCAR-5 cells [1]; OVCAR-5, cisplatin 0.2, 0.5 and 1 μM, 3 d) | proliferation of 3+Ecad− population (OVCAR-5 cells [1]; [5]) | proliferation of 3−Ecad+ population (OVCAR-5 cells [1]; [5]) | proliferation of 3+Ecad− population (OVCAR-5 cells [1]; OVCAR-5, cisplatin 0.2, 0.5 and 1 μM, 3 d, absolute cell number, listed as Cisplatin) | relative numbers of 3+ enriched population compared to 3− cells [2] | percentage of 3+/Ecad− cells in G1 (OVCAR-5 cells [3]; 100 μg/mL (714 nM) MIS or 60 nM doxorubicin, 48 h) | S or G2 distributions of either 3+Ecad− or 3−Ecad+ (OVCAR-5 cells [3]; doxorubicin 60 nM, 2 d) | proliferation of 3+/Ecad+ population (OVCAR-5 cells [1]; absolute cell number) | proliferation of 3+/Ecad− population (OVCAR-5 cells [1]; absolute cell number) | proliferation of 3+/Ecad+ population (OVCAR-5 cells [1]; [6]) | proliferation of 3+/Ecad− population (OVCAR-5 cells [1]; [6]) | proliferation of total viable cells (OVCAR-5 cells [1]; unseparated OVCAR-5, doxorubicin 60 nM, 1, 2 and 3 days) | proliferation of total viable cells (OVCAR-5 cells [1]; unseparated OVCAR-5, doxorubicin 60 nM, 1, 2 and 3 days, listed as Doxorubicin) | p15 expression ([4]; MOVCAR-7 and -8, 50 μg/mL MIS or 60 nM doxorubicin vs vehicle, 4 h) | other CDK inhibitors mRNA levels (p18, p19, p21, p27) ([4]; MOVCAR-7 or -8, 50 μg/mL MIS or 60 nM doxorubicin, 4 h) | kinases tested (CDK2, CDK4, CDK6) ([4]; transgenic cell lines treated with MIS or doxorubicin, data not shown) | colony formation of 3+/Ecad− cells (3+/Ecad− OVCAR-5 cells) | colony formation of 3+/Ecad− cells (3+/Ecad− OVCAR-5 cells; listed as Doxorubicin)
N.N.[Cl][Pt][Cl] [cisplatin] | inhibits proliferation | increased | inhibits proliferation | stimulates | increased | – | – | – | – | – | – | – | – | – | – | – | – | –
COc1cccc2c1C(=O)c1c(O)c3c(c(O)c1C2=O)C[C@@](O)(C(=O)CO)C[C@@H]3O[C@H]1C[C@H](N)[C@H](O)[C@H](C)O1 [doxorubicin, reference compound] | – | – | – | – | increased | decreased | did not statistically affect | decreased | paradoxically increased | inhibits proliferation | stimulates | significant inhibition | inhibits proliferation | decreased; also recorded: significant and opposite responses | did not regulate significantly | unaffected | significantly increased number of colonies; also recorded: significantly increases; also recorded: stimulated; also recorded: paradoxically increased; also recorded: significantly increased colony numbers | paradoxically increased significantly
CC(=O)O[C@H]1C(=O)[C@@]2(C)[C@H]([C@H](OC(=O)c3ccccc3)[C@]3(O)C[C@H](OC(=O)[C@H](O)[C@@H](NC(=O)c4ccccc4)c4ccccc4)C(C)=C1C3(C)C)[C@]1(OC(C)=O)CO[C@@H]1C[C@@H]2O [paclitaxel] | – | – | – | – | increased | – | – | – | – | – | – | – | – | – | – | – | – | –
